Publication PMC3378510 (Nature immunology, 2012)

Legend:
1E6 CD8^+ T cell clone = experiment: Peptide mutagenesis scan of 1E6 T cells, TNF secretion; type: cell-based, human; details: compared with index peptide; peptide 1 μg/ml, 16 hr
[1] = system: 1E6 clone, in the context of HLA A*0201; details: compared with preproinsulin-derived peptide ALWGPDPAAA; cited from earlier work

| Substance | TNF response / activation, in words (1E6 CD8^+ T cell clone) | agonist potency, in words [1] |
| --- | --- | --- |
| R: A Position 1: ALWGPDPAAA with A1 mutated to R (RLWGPDPAAA) | larger responses compared with the index peptide |  |
| Q: L Position 2: ALWGPDPAAA with L2 mutated to Q (AQWGPDPAAA) | larger responses compared with the index peptide |  |
| RQFGPDFPTI |  | most potent peptide identified |
